From PMC10394516, “The pharmacokinetic profile of brensocatib and its effect on pharmacodynamic biomarkers including NE, PR3, and CatG in various rodent species” (Frontiers in Pharmacology, 2023)
Read-outs that look alike come from different tables or passages of the source.

Assay: Plasma PK of brensocatib, BID vs QD oral dosing, BALB/c mice
Assay type: in vivo
Conditions: for half-life / AUC(0-t): both sexes, BALB/c, mouse, po
Method: A dose frequency study was performed in male and female mice (C57BL/6 & BALB/c) and in male and female rats (Sprague Dawley & Wistar) investigating twice daily (BID) versus once daily (QD) brensocatib administration.
Briefly, animals were weighed and randomized into different treatment groups. In total, three different dosing levels of brensocatib were tested in each species and strain; each QD dosing level was equivalent to 1.5-times the matching daily BID dose. For BID dosing, the second daily dose was administered 8-h post the morning dose. C57BL/6 mice were dosed either BID or QD for 7 consecutive days at 0/0, 0.5/0.75, 2/3, and 20/30 mg/kg/day (BID/QD). BALB/c mice were dosed for 7 consecutive days at 0/0, 0.2/0.3, 2/3, and 20/30 mg/kg/day (BID/QD). SD rats were dosed for 9 consecutive days at 0/0, 0.2/0.3, 2/3, and 20/30 mg/kg/day (BID/QD). Wistar rats were dosed for 7 consecutive days at 0/0, 0.2/0.3, 2/3, and 20/30 mg/kg/day (BID/QD).
For sparse PK analysis via LC-MS/MS, plasma was collected from animals during the first 24 h of dosing at prescribed timepoints. The timepoints included 1, 3, 8, and 24 h post initial dose for QD groups, and 1, 3, 8, 9, 11, and 24 h post initial dose for BID groups. Note that the 8- and 24-h plasma samples were prior to the afternoon dose for BID groups and prior to the second day dose for all groups, respectively. See section Quantification of Plasma Brensocatib Concentrations for details.
Blood was collected via the tail-vein technique and centrifuged to separate and collect the plasma. The resulting plasma samples were stored at −20°C or lower until LC-MS/MS analysis.
The plasma concentration of brensocatib was quantified by liquid chromatography, tandem mass spectrometry (LC-MS/MS), a Sciex API6500 mass spectrometer (SCIEX, Framingham, MA). Two brensocatib stock solutions were prepared, one for the preparation of the 8-point standard (STD) curve spiking solutions and the other for the preparation of the quantitative control spiking solutions (QCs) at three levels. The STD curve and QCs were prepared by 2% spiking from the spiking solutions into mouse or rat plasma. The samples were extracted using a protein precipitation method, where 10 µL of sample was mixed with 100 µL of internal standard working solution (100 ng/mL ^6C13-brensocatib in methanol), vortexed for 5 s, and centrifuged at 21,130 × g at 4°C for 15 min. The supernatant was mixed with an equal volume of water and 10 μL was injected into a Phenomenex Kinetex Biphenyl column (3.0 mm × 50 mm; 2.6 μm; 65°C; 0.8 mL/min) with an elution gradient consisting of mobile phase A (10 mM ammonium formate) and mobile phase B (methanol) over 2 min from 5% to 95% B. The mass spectrometer was equipped with an atmospheric-pressure chemical ionization source operating in positive mode.
Individual plasma concentrations were plotted and the area under the curve (AUC) was calculated using the trapezoid method. The elimination rate constant (k e ) was calculated as the negative natural log of the plasma concentration over time (Eq. 1) starting at the max concentration (C max) after the most recent dose to the last measurable plasma concentration between doses. The calculated k e was used to define the half-life (t 1/2 ) based on Eq. 2; where 0.693 is the natural log of 2 and assumes a first-order reaction. ke=−ln∆C/∆t (1) t1/2=0.693/ke (2)

`Cn1c(=O)oc2ccc(-c3ccc(C[C@@H](C#N)NC(=O)[C@@H]4CNCCCO4)cc3)cc21` [brensocatib] showed a half-life (0.2 mg/kg/day, oral BID, 0.2 mg/kg/day, evening dose, read-out: t1/2, PM dose (converted)) of 0.67 ± 0.04 h, an AUC(0-t) (0.2 mg/kg/day, oral BID, 0.2 mg/kg/day, first 24 h, read-out: AUC0–24h) of 124 ± 31 ng·h/mL and an AUC(0-t) (0.2 mg/kg/day, oral BID, 0.2 mg/kg/day, first 24 h, read-out: AUC(0–24)) of 0.29 ± 0.07 µM·h. It also gave a half-life (0.2 mg/kg/day, oral BID, 0.2 mg/kg/day, morning dose, read-out: t1/2, AM dose (converted)) of 1.58 ± 0.72 h, an AUC(0-t) (0.3 mg/kg/day, oral QD, 0.3 mg/kg/day, first 24 h, read-out: AUC0–24h) of 188 ± 31 ng·h/mL and an AUC(0-t) (0.3 mg/kg/day, oral QD, 0.3 mg/kg/day, first 24 h, read-out: AUC(0–24)) of 0.45 ± 0.07 µM·h. For the same molecule, the half-life (0.3 mg/kg/day, oral QD, 0.3 mg/kg/day, read-out: t1/2, AM dose (converted)) was 0.97 ± 0.03 h, the half-life (2 mg/kg/day, oral BID, 2 mg/kg/day, evening dose, read-out: t1/2, PM dose (converted)) was 1.19 ± 0.34 h and the AUC(0-t) (2 mg/kg/day, oral BID, 2 mg/kg/day, first 24 h, read-out: AUC0–24h) was 1510 ± 395 ng·h/mL. The AUC(0-t) (2 mg/kg/day, oral BID, 2 mg/kg/day, first 24 h, read-out: AUC(0–24)) was 3.59 ± 0.94 µM·h, the half-life (2 mg/kg/day, oral BID, 2 mg/kg/day, morning dose, read-out: t1/2, AM dose (converted)) was 3.22 ± 0.35 h and the AUC(0-t) (3 mg/kg/day, oral QD, 3 mg/kg/day, first 24 h, read-out: AUC0–24h) was 2960 ± 679 ng·h/mL. It also gave an AUC(0-t) (3 mg/kg/day, oral QD, 3 mg/kg/day, first 24 h, read-out: AUC(0–24)) of 7.04 µM·h, a half-life (3 mg/kg/day, oral QD, 3 mg/kg/day, read-out: t1/2, AM dose (converted)) of 0.83 ± 0.03 h and a half-life (20 mg/kg/day, oral BID, 20 mg/kg/day, evening dose, read-out: t1/2, PM dose (converted)) of 1.88 ± 0.06 h. It also gave an AUC(0-t) (20 mg/kg/day, oral BID, 20 mg/kg/day, first 24 h, read-out: AUC0–24h) of 24100 ng·h/mL, an AUC(0-t) (20 mg/kg/day, oral BID, 20 mg/kg/day, first 24 h, read-out: AUC(0–24)) of 57.3 ± 11.4 µM·h and a half-life (20 mg/kg/day, oral BID, 20 mg/kg/day, morning dose, read-out: t1/2, AM dose (converted)) of 2.47 ± 0.31 h. For the same molecule, the AUC(0-t) (30 mg/kg/day, oral QD, 30 mg/kg/day, first 24 h, read-out: AUC0–24h) was 56300 ng·h/mL, the AUC(0-t) (30 mg/kg/day, oral QD, 30 mg/kg/day, first 24 h, read-out: AUC(0–24)) was 134 ± 41.1 µM·h and the half-life (30 mg/kg/day, oral QD, 30 mg/kg/day, read-out: t1/2, AM dose (converted)) was 2.56 ± 0.14 h. For the same molecule, the “AUC(0–24)” value (oral QD, 3 mg/kg/day, first 24 h) was 7.05 ± 1.61 µM·h.
